# Laboratory results from patent US20190224238A1, “TUMOR THERAPEUTIC DRUG” (HUBEI SOUNDNY BIO TECH CO., LTD., priority 2016, published 2019).
# Experiments:
# [1] = system: H22 cell hepatoma ascites model; experiment: Survival of BALB/c mouse H22 hepatoma ascites model; type: in vivo; settings: until the 34th (H22-MPs), 33th (Ery-MPs), 31th (methotrexate) day; 10 mice per group
# Description: 3) On the first day, 5×10^4 H22 cells were intraperitoneally inoculated into BALB/c mice, and a total of 40 BALB/c mice were injected to obtain the one with H22 cell hepatoma ascites model, which were randomly divided into four groups equally, namely experimental group 1, experimental group 2, experimental group 3 and control group. The BALB/c mice in experimental group 1 were intraperitoneally injected with H22-MPs (MTX); the BALM mice in experimental group 2 were intraperitoneally injected with Ery-MPs (MTX); the BALB/c mice in experimental group 3 were intraperitoneally injected with methotrexate at a dose of 1 μg/g; and the BALB/c mice in the control group were intraperitoneally injected with 200 μL of 0.9% (g/ml) physiological saline.
# 4) From the 4th day, according to the same injection procedure, the experimental groups were injected with H22-MPs (MTX), Ery-MPs (MTX) and chemotherapy drug (methotrexate) once a day for 7 consecutive days, respectively, while the control group was injected with 200 μL 0.9% (g/ml) physiological saline once a day for 7 consecutive days. From the 11th day, all of the BALB/c mice were fed normally, and the survival status of the BALB/c mice in each group was observed.
# [2] = Toxicity and side effect test in BALB/c mice (GPT, serum creatinine, APTT, PT); type: in vivo; settings: tail vein, once a day for 7 days; blood on 8th day
# Description: 3) The prepared H22-MPs (MTX) was injected into 8 BALB/c mice via tail vein respectively, as the experimental group 1; the prepared Ery-MPs (MTX) was injected into 8 BALM mice via tail vein respectively, as the experimental group 2; 8 mice BALB/c mice were injected with methotrexate via tail vein at a dose of 1 μg/g, as the experimental group 3; 8 mice BALB/c mice were injected with 0.9% (g/ml) physiological saline via tail vein, as the control group.
# 4) On the 8th day, venous blood was taken from the mice in the experimental group 1, the experimental group 2, the experimental group 3 and the control group, and the content of glutamic-pyruvic transaminase, creatinine in serum and the content of APTT and PT in the blood were detected. The body weights of the mice were weighed.
# [3] = system: Lewis cell lung cancer model; settings: tail vein, once a day for 10 days from 5th day
# Description: 3) On the 1st day, 1×10^6 Lewis cells were inoculated into a C57BL/6 mouse via tail vein, and a total of 32 C57BL/6 mice were injected to obtain the C57BL/6 mice of Lewis cell lung cancer model which were randomly divided into four groups equally, namely, experiment group 1, experiment group 2, experiment group 3 and control group.
# From the 15th day, all of the C57BL/6 mice were fed normally, and the survival status of the C57BL/6 mice in each group was observed.
structure (smiles),measurement,setting,value
CN(Cc1cnc2nc(N)nc(N)c2n1)c1ccc(C(=O)N[C@@H](CCC(=O)O)C(=O)O)cc1 [methotrexate],total mice died,[1],9 mice
same,average activated partial prothrombin time (APTT),[2],16.5 s
same,average plastin time (PT),[2],13.13 s
same,average serum creatinine content,[2],26.13 µmol/L
same,therapeutic effect on lung cancer in mice (survival curve),[3],much poorer than that of Ery-MPs (MTX) and LLC-MPs (MTX)
